Measurements reported in US4508663A, “Process for preparing thiosulfenamide derivatives of N-phosphonomethylglycinonitriles” (Monsanto Company, priority 1983, dated 1985).

Assays:
Assay in all cases: post-emergence herbicidal activity, greenhouse
Format in all cases: in vivo
Barnyardgrass = test system: Barnyardgrass
Method in brief: (§1)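 Plants grown from seed or perennial propagules in greenhouse soil pans were sprayed at two to three weeks with compound solution or suspension containing about 0.4% emulsifier, at the stated application rates. Injury relative to untreated controls was scored at approximately two and four weeks after treatment on a post-emergence activity index.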

Canada Thistle = conditions: Table I
Method in brief: as §1

Cocklebur = test system: Cocklebur
Method in brief: as §1

Crabgrass = conditions: Table II, 4 WAT
Method in brief: as §1

Downy Brome = test system: Downy Brome
Method in brief: as §1

Hemp Sesbania = conditions: Table II, 4 WAT
Method in brief: as §1

Johnsongrass = conditions: Table I
Method in brief: as §1

Lambsquarters = test system: Lambsquarters
Method in brief: as §1

Morningglory = test system: Morningglory
Method in brief: as §1

Panicum Spp = conditions: Table II, 4 WAT
Method in brief: as §1

Quackgrass = conditions: Table I
Method in brief: as §1

Rice = conditions: Table II, 4 WAT
Method in brief: as §1

Smartweed = test system: Smartweed
Method in brief: as §1

Sorghum = conditions: Table II, 4 WAT
Method in brief: as §1

Soybean = conditions: Table II, 4 WAT
Method in brief: as §1

Sugar Beet = conditions: Table II, 4 WAT
Method in brief: as §1

Velvetleaf = test system: Velvetleaf
Method in brief: as §1

Wheat = conditions: Table II, 4 WAT
Method in brief: as §1

Wild Buckwheat = conditions: Table II, 4 WAT
Method in brief: as §1

Yellow Nutsedge = conditions: Table I
Method in brief: as §1

N#CCN(CP(=O)(Oc1ccccc1)Oc1ccccc1)SSc1cccc(C(F)(F)F)c1 [IV, Phosphonic acid, [[(cyanomethyl)[[3-(trifluoromethyl)phenyl]dithio]amino]methyl]-, diphenyl ester]
post-emergence herbicidal activity index (Barnyardgrass; Table I, 2 WAT, 5.6 kg/h): 2 (50-74% control) | post-emergence herbicidal activity index (Barnyardgrass; Table I, 2 WAT, 11.2 kg/h): 2 (50-74% control) | post-emergence herbicidal activity index (Barnyardgrass; Table I, 4 WAT, 5.6 kg/h): 2 (50-74% control) | post-emergence herbicidal activity index (Barnyardgrass; Table I, 4 WAT, 11.2 kg/h): 2 (50-74% control) | post-emergence herbicidal activity index (Barnyardgrass; Table II, 4 WAT, 1.12 kg/h): 0 (0-24% control) | post-emergence herbicidal activity index (Barnyardgrass; Table II, 4 WAT, 5.6 kg/h): 3 (75-99% control) | post-emergence herbicidal activity index (Canada Thistle; 2 WAT, 5.6 kg/h): 1 (25-49% control) | post-emergence herbicidal activity index (Canada Thistle; 2 WAT, 11.2 kg/h): 1 (25-49% control) | post-emergence herbicidal activity index (Canada Thistle; 4 WAT, 5.6 kg/h): 2 (50-74% control) | post-emergence herbicidal activity index (Canada Thistle; 4 WAT, 11.2 kg/h): 1 (25-49% control) | post-emergence herbicidal activity index (Cocklebur; Table I, 2 WAT, 5.6 kg/h): 1 (25-49% control) | post-emergence herbicidal activity index (Cocklebur; Table I, 2 WAT, 11.2 kg/h): 2 (50-74% control) | post-emergence herbicidal activity index (Cocklebur; Table I, 4 WAT, 5.6 kg/h): 2 (50-74% control) | post-emergence herbicidal activity index (Cocklebur; Table I, 4 WAT, 11.2 kg/h): 2 (50-74% control) | post-emergence herbicidal activity index (Cocklebur; Table II, 4 WAT, 1.12 kg/h): 1 (25-49% control) | post-emergence herbicidal activity index (Cocklebur; Table II, 4 WAT, 5.6 kg/h): 3 (75-99% control) | post-emergence herbicidal activity index (Crabgrass; 1.12 kg/h): 3 (75-99% control) | post-emergence herbicidal activity index (Crabgrass; 5.6 kg/h): 3 (75-99% control) | post-emergence herbicidal activity index (Downy Brome; Table I, 2 WAT, 5.6 kg/h): 1 (25-49% control) | post-emergence herbicidal activity index (Downy Brome; Table I, 2 WAT, 11.2 kg/h): 0 (0-24% control) | post-emergence herbicidal activity index (Downy Brome; Table I, 4 WAT, 5.6 kg/h): 1 (25-49% control) | post-emergence herbicidal activity index (Downy Brome; Table I, 4 WAT, 11.2 kg/h): 2 (50-74% control) | post-emergence herbicidal activity index (Downy Brome; Table II, 4 WAT, 1.12 kg/h): 0 (0-24% control) | post-emergence herbicidal activity index (Downy Brome; Table II, 4 WAT, 5.6 kg/h): 1 (25-49% control) | post-emergence herbicidal activity index (Hemp Sesbania; 1.12 kg/h): 0 (0-24% control) | post-emergence herbicidal activity index (Hemp Sesbania; 5.6 kg/h): 1 (25-49% control) | post-emergence herbicidal activity index (Johnsongrass; 2 WAT, 5.6 kg/h): 2 (50-74% control) | post-emergence herbicidal activity index (Johnsongrass; 2 WAT, 11.2 kg/h): 1 (25-49% control) | post-emergence herbicidal activity index (Johnsongrass; 4 WAT, 5.6 kg/h): 3 (75-99% control) | post-emergence herbicidal activity index (Johnsongrass; 4 WAT, 11.2 kg/h): 1 (25-49% control) | post-emergence herbicidal activity index (Lambsquarters; Table I, 2 WAT, 5.6 kg/h): 3 (75-99% control) | post-emergence herbicidal activity index (Lambsquarters; Table I, 2 WAT, 11.2 kg/h): 3 (75-99% control) | post-emergence herbicidal activity index (Lambsquarters; Table I, 4 WAT, 5.6 kg/h): 3 (75-99% control) | post-emergence herbicidal activity index (Lambsquarters; Table I, 4 WAT, 11.2 kg/h): 4 (100% control) | post-emergence herbicidal activity index (Lambsquarters; Table II, 4 WAT, 1.12 kg/h): 2 (50-74% control) | post-emergence herbicidal activity index (Lambsquarters; Table II, 4 WAT, 5.6 kg/h): 4 (100% control) | post-emergence herbicidal activity index (Morningglory; Table I, 2 WAT, 5.6 kg/h): 1 (25-49% control) | post-emergence herbicidal activity index (Morningglory; Table I, 2 WAT, 11.2 kg/h): 1 (25-49% control) | post-emergence herbicidal activity index (Morningglory; Table I, 4 WAT, 5.6 kg/h): 3 (75-99% control) | post-emergence herbicidal activity index (Morningglory; Table I, 4 WAT, 11.2 kg/h): 2 (50-74% control) | post-emergence herbicidal activity index (Morningglory; Table II, 4 WAT, 1.12 kg/h): 1 (25-49% control) | post-emergence herbicidal activity index (Morningglory; Table II, 4 WAT, 5.6 kg/h): 2 (50-74% control) | post-emergence herbicidal activity index (Panicum Spp; 1.12 kg/h): 0 (0-24% control) | post-emergence herbicidal activity index (Panicum Spp; 5.6 kg/h): 2 (50-74% control) | post-emergence herbicidal activity index (Quackgrass; 2 WAT, 5.6 kg/h): 1 (25-49% control) | post-emergence herbicidal activity index (Quackgrass; 2 WAT, 11.2 kg/h): 0 (0-24% control) | post-emergence herbicidal activity index (Quackgrass; 4 WAT, 5.6 kg/h): 2 (50-74% control) | post-emergence herbicidal activity index (Quackgrass; 4 WAT, 11.2 kg/h): 0 (0-24% control) | post-emergence herbicidal activity index (Rice; 1.12 kg/h): 0 (0-24% control) | post-emergence herbicidal activity index (Rice; 5.6 kg/h): 2 (50-74% control) | post-emergence herbicidal activity index (Smartweed; Table I, 2 WAT, 5.6 kg/h): 0 (0-24% control) | post-emergence herbicidal activity index (Smartweed; Table I, 2 WAT, 11.2 kg/h): 1 (25-49% control) | post-emergence herbicidal activity index (Smartweed; Table I, 4 WAT, 5.6 kg/h): 0 (0-24% control) | post-emergence herbicidal activity index (Smartweed; Table I, 4 WAT, 11.2 kg/h): 4 (100% control) | post-emergence herbicidal activity index (Smartweed; Table II, 4 WAT, 1.12 kg/h): 1 (25-49% control) | post-emergence herbicidal activity index (Smartweed; Table II, 4 WAT, 5.6 kg/h): 2 (50-74% control) | post-emergence herbicidal activity index (Sorghum; 1.12 kg/h): 2 (50-74% control) | post-emergence herbicidal activity index (Sorghum; 5.6 kg/h): 3 (75-99% control) | post-emergence herbicidal activity index (Soybean; 1.12 kg/h): 1 (25-49% control) | post-emergence herbicidal activity index (Soybean; 5.6 kg/h): 1 (25-49% control) | post-emergence herbicidal activity index (Sugar Beet; 1.12 kg/h): 0 (0-24% control) | post-emergence herbicidal activity index (Sugar Beet; 5.6 kg/h): 0 (0-24% control) | post-emergence herbicidal activity index (Velvetleaf; Table I, 2 WAT, 5.6 kg/h): 0 (0-24% control) | post-emergence herbicidal activity index (Velvetleaf; Table I, 2 WAT, 11.2 kg/h): 0 (0-24% control) | post-emergence herbicidal activity index (Velvetleaf; Table I, 4 WAT, 5.6 kg/h): 1 (25-49% control) | post-emergence herbicidal activity index (Velvetleaf; Table I, 4 WAT, 11.2 kg/h): 1 (25-49% control) | post-emergence herbicidal activity index (Velvetleaf; Table II, 4 WAT, 1.12 kg/h): 0 (0-24% control) | post-emergence herbicidal activity index (Velvetleaf; Table II, 4 WAT, 5.6 kg/h): 1 (25-49% control) | post-emergence herbicidal activity index (Wheat; 1.12 kg/h): 0 (0-24% control) | post-emergence herbicidal activity index (Wheat; 5.6 kg/h): 1 (25-49% control) | post-emergence herbicidal activity index (Wild Buckwheat; 1.12 kg/h): 0 (0-24% control) | post-emergence herbicidal activity index (Wild Buckwheat; 5.6 kg/h): 2 (50-74% control) | post-emergence herbicidal activity index (Yellow Nutsedge; 2 WAT, 5.6 kg/h): 1 (25-49% control) | post-emergence herbicidal activity index (Yellow Nutsedge; 2 WAT, 11.2 kg/h): 1 (25-49% control) | post-emergence herbicidal activity index (Yellow Nutsedge; 4 WAT, 5.6 kg/h): 2 (50-74% control) | post-emergence herbicidal activity index (Yellow Nutsedge; 4 WAT, 11.2 kg/h): 2 (50-74% control)
